Laboratory results from patent US20030129189A1, “Tumor necrosis factor-gamma” (priority 1994, published 2003).
One block for each molecule: values may come before it.

Columns and labels:
[1] = test system: bovine pulmonary artery endothelial cells (BPAEC); experiment: Endothelial cell apoptosis (morphology, Hoechst staining, DNA fragmentation); type: cell-based
Description: [Bovine pulmonary artery endothelial cells were incubated with various concentrations of TNF-gamma for 48 hours. The apoptosis was assessed by nuclear staining with Hoechst 33342 fluorescence dye (10 mg/ml).] […] [U937 cells were transfected using lipofectamine (following manufacturer's instruction) with 0.2 mg of reporter plasmid (NF-kappaB-SEAP). The transfected U937 cells were collected and added to the 96-well plate ([…]/well) with various concentrated of TNF-gamma. After Incubation at 37° C. for 72 hr, the NF-kappaB activity was measured with luminometer at absorbance of 450 nm.]
Bovine pulmonary artery endothelia cells (BPAEC) were incubated with various concentrations of TNF-gamma for 48 hours. Apoptosis was assessed morphologically and by nuclear staining with Hoechst 33342 fluorescence dye (10 mg/ml) in triplicate. Live and apoptotic cells were scored in four random fields, about 1,000 cells were counted. The DNA fragmentation was analyzed as described previously.
BPAEC were obtained from the American Type Culture Collection (Rockville, Md., USA). The cells were grown in DMEM supplemented with 10% heat-inactivated FCS in a humidified environment of 5% CO2/[…] at 37° C. as previously described (Yue, T. L., et al., Mol. Pharmacol. 51:951-962 (1997)). Cells at a subconfluent density were used. Before experiments, the medium was changed to DMEM contained 2% FCS. BPAEC from passages 17-20 were used in all studies.
To quantify cells undergoing apoptosis, cell monolayers were fixed and stained with Hoechst […] (Molecular probe, Eugene, Oreg., USA) as described previously (Yue, T. L., et al., Mol. Pharmacol. 51:951-962 (1997)). The morphological features of apoptosis (cell shrinkage, chromatin condensation, blebbing, and fragmentation) were monitored by fluorescence microscopy. Transmission electron microscopy study was done as reported previously (Yue, T. L., et al., Mol. Pharmacol. 51:951-962 (1997)).
DNA ladder: Cells treated with vehicle or TNF-gamma-alpha were lysed in lysis buffer containing 100 mM NaCl, 10 mM Tris-HCl, pH 8.0, 2.5 mM EEDTA, 0.5% SDS, and 100 micrograms/ml […]. The lysates were incubated at 55° C. for 16 h. After incubation, the lysates were gently extracted three times with pheno/chloroform/isoamyl alcohol, precipitated in ethanol, treated with DNAse-free RNAse, re-extracted, and precipitated again as described previously. DNA electrophoresis was carried out in 1.8% agarose gels containing ethidium bromide, and DNA fragmentations were visualized under ultraviolet light.
In situ end-labeling (TUNEL): BPAEC were cultured in two-chamber slides (Nunc) and treated with TNF-gamma-alpha for 8 to 24 h. In situ detection of apoptotic cells was performed by using terminal deoxyribonucleotide transferase-mediated dUTP nick end labeling with an ApopTag in situ apoptosis detection kit (Oncor) following the manufacturer's recommendation.
The cells were plated in two-chamber slides. The cells were cotransfected with 0.5 μg/ml of Pegfp-c-1 (Clontech; Li, Y. and Horwitz, M. S. Biotechnology 23:1026-1028) as a fluorescent marker of transfected cells together with 1 μg/ml of either the empty cloning vector pcDNA1 (control) or the dominant-interfering c-Jun mutant pcDNA1-FlagΔ169 (Xia, Z., et al., Science 270:1326-1331 (1995)) using Calphos Maximizer Transfection Kit (Clontech) according to the manufacturer's recommendation. Following transfection, the cells were allowed to recover in complete medium for 24 h. The cells were treated with TNF-gamma-alpha and the number of apoptotic cells was assessed by nuclear staining after fixation as described in Methods.

[2] = test system: bFGF-induced corneal neovascularization; experiment: Corneal angiogenic assay; type: in vivo, rat
Text: Basic FGF (“bFGF”) has been tested in this corneal angiogenic assay in various research laboratories for a variety of purposes. It has been shown that bFGF can induce significant angiogenesis in corneas (e.g., in rabbits, rats and mice). Based on the previous studies, bFGF was used in our study of TNF-gamma as an angiogenic factor to induce the growth of blood vessels in rat corneas.
An incision, 1-1.5 mm in length, is made in the center of the cornea with a microsurgery scalpel blade.
Starting at the incision, a micropocket is created between the collagenous layers of the corneal stroma with a Castroviego cyclodialysis spatula. This pocket extends to a point 1-2 mm from the capillary bed at the corneal-scleral limbus.
bFGF, which is incorporated 1:1 into non-inflammatory Hydron polymer (available from Interferon Sciences, New Brunswick, N.J.), is implanted into the pocket.
Five or seven days after corneal implantation, corneal blood perfusion with colloidal carbon is performed. Corneas are then harvested, fixed, flattened, mounted and photographed for morphology.
An image analysis system (IPLab) is used to quantify the corneal angiogenesis. The corneal surface area, which is covered by the new blood vessels, is quantified and used in our current study. After corneal implantation surgery, TNF-gamma, angiostatin or PBS in a volume of 25 microliters was injected into the conjunctival region adjacent to the implantation site. Based on molarities of TNF-gamma and angiostatin, 10 micrograms of TNF-gamma or 5 micrograms of angiostatin were given respectively four times, once a day, during the first four days post-surgery. TNF-gamma and angiostatin were prepared in PBS.
bFGF was used to induce neovascularization of the cornea from preexisting pericorneal limbal vessels in two different versions of the assay. First, corneas were surgically implanted with hydrogel plugs containing bFGF. […] In a separate study using an alternate version of this assay, both bFGF and treatment protein were co-administered on a nitrocellulose filter disk implanted within the rat corneal stroma. […] In both assays, the surface area of the angiogenic response was quantitated from digital images of treated corneas five days following implantation.

[3] = target: T1, recombinant, untagged TNF-gamma-beta protein (aa 72-251) (human, UniProt O95150 72-251); experiment: BIAcore 3000, DR3-Fc immobilised on CM5 chip, TNF-gamma-beta in flow, 1:1 model, three batches
T1 construct: they are put here; also called TL1β; non-tagged TNF-gamma-beta
T1 sequence: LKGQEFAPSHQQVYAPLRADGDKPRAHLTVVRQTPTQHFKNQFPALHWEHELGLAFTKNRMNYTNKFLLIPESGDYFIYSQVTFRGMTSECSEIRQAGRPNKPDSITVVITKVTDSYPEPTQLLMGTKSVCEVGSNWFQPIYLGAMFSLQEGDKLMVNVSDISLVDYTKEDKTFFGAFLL
Description: TNFR-Fc were covalently immobilized to the BIAcore sensor chip (CM5 chip) via amine groups using N-ethyl-N′-(dimethylaminopropyl) carbodiimide/N-hydroxysuccinimide chemistry. […] The amount of bound protein was determined during washing of the flow cell with HBS buffer (10 mM HEPES, pH 7.4, 150 mM NaCl, 3.4 mM EDTA, 0.005% Surfactant P20). The flow cell surface was regenerated by displacing bound protein by washing with 20 microliters of 10 mM glycine-HCl, pH 2.3. For kinetic analysis, the on and off rates were determined using the kinetic evaluation program in BIAevaluation 3 software using a 1:1 binding model and the global analysis method.

TNF-gamma-beta = target: T2, TNF-gamma-beta (Homo sapiens, UniProt O95150); experiment: FACS binding of receptor-Fc proteins to cells expressing full length TNF-gamma-beta
T2 construct: expressed in transfected cells
T2 sequence (O95150 1-251): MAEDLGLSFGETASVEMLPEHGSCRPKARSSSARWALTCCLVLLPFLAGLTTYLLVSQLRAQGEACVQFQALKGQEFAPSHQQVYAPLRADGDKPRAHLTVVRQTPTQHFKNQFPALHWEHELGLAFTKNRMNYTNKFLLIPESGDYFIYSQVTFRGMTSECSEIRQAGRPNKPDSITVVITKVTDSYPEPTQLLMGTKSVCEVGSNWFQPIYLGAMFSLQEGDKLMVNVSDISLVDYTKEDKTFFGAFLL
Description: These cells were used to screen the Fc-fusion form of the extracellular domain of TNFR family members, including TNFR1, Fas, HveA, DR3, DR4, DR5, DR6, DcR1, DcR2, TR6, OPG, RANK, AITR, TAC1, CD40, and OX40. […] TR6 has been previously described as a decoy receptor (Pitti et al., Nature 396:699-703 (1998); Yu et al., J. Biol. Chem. 274:13733-6 (1999)) capable of competing with Fas and HveA for binding of FasL and LIGHT, respectively.
Cells resistant to 0.5 mg/ml Genticin (Invitrogen) were selected and expanded. Expression of TNF-gamma-beta mRNA was confirmed by quantitative RT-PCR analysis and surface expression of TNF-gamma-beta protein confirmed by FACS analyses using TNF-gamma-beta monoclonal antibodies.
One million cells, in 0.1 ml of FACS buffer (PBS, 0.1% BSA, 0.1% NaN3), were incubated with 0.1-1 microgram of protein or antibody at RT for 15 min. The cells were washed with 3 ml of FACS buffer, reacted with biotinylated primary antibody, and stained with PE-conjugated secondary antibody at RT for 15 min. Cells were then washed again, resuspended in 0.5 microgram/ml of propidium iodide, and live cells were gated and analyzed on a FACScan using the CellQuest software (BD Biosciences).

Molecule: C[S+]([O-])c1ccc(-c2nc(-c3ccncc3)c(-c3ccc(F)cc3)[nH]2)cc1 (stereo not drawn) [SB203580, reference compound]
reduction of TNF-gamma-alpha-induced BPAEC apoptosis ([1]; 3 μM): 33% | reduction of TNF-gamma-alpha-induced BPAEC apoptosis ([1]; 10 μM): 51%

Molecule: ZVAD-fmk [reference compound]
effect of caspase inhibitor on TNF-gamma-alpha-induced BPAEC apoptosis ([1]; added 1 h prior to TNF-gamma-alpha, Ac-YYAD-CHO up to 100 μM): attenuated

Molecule: angiostatin
angiogenic process in bFGF-implanted corneas ([2]; bFGF (300 ng) implant, conjunctival injection once a day for four days, 10 micrograms TNF-gamma or 5 micrograms angiostatin, seven days after surgery, vs PBS): significantly slowed down the angiogenic process | maximal decrease in rat corneal neovascularization induced by bFGF ([2]; comparison of TNF-gamma-beta and angiostatin): similar | vessel growth in PBS-implanted corneas ([2]; multiple conjunctival injections): no obvious vessel growth

B1: sTNFR1: Mouse soluble TNF receptor 1 from R&D Systems (protein, UniProt P25118 30-212, looked up)
extracellular domain: LVPSLGDREKRDSLCPQGKYVHSKNNSICCTKCHKGTYLVSDCPSPGRDTVCRECEKGTFTASQNYLRQCLSCKTCRKEMSQVEISPCQADKDTVCGCKENQFQRYLSETHFQCVDCSPCFNGTVTIPCKETQNTVCNCHAGFFLRESECVPCSHCKKNEECMKLCLPPPLANVTNPQDSGTA
modifications: extracellular domain
notes: Mouse soluble TNF receptor 1 from R&D Systems
effect on TNF-gamma-alpha-induced apoptosis ([1]; BPAEC): Neither sTNFR1 nor sTNFR2 showed effect | effect on TNFa-induced apoptosis ([1]; BPAEC, same condition): reduced by sTNFR1 significantly

Kd [3]: 6.45 nM | kon [3]: 639000 M⁻¹ s⁻¹
B2: DR3-Fc (extracellular domain of human DR3, aa 1-199, fused to the Fc domain of human IgG1) (Fc fusion, UniProt Q93038 25-199, looked up)
chain: QGGTRSPRCDCAGDFHKKIGLFCCRGCPAGHYLKAPCTEPCGNSTCLVCPQDTFLAWENHHNSECARCQACDEQASQVALENCSAVADTRCGCKPGWFVECQVSQCVSSSPFYCQPCLDCGALHRHTRLLCSRRDTDCGTCLPGFYEHGDGCVSCPTSTLGSCPERCAAVCGWRQ
notes: range 1-199; not shown: Fc domain of human IgG1, fused in-frame to the C-terminus of the receptor part

binding to cells expressing TNF-gamma-beta (FACS) (TNF-gamma-beta): did not bind
B3: HveA-Fc: extracellular domain of HveA (aa 1-192) fused to Fc of human IgG1 (protein)
chain: LPSCKEDEYPVGSECCPKCSPGYRVKEACGELTGTVCEPCPPGTYIAHLNGLSKCLQCQMCDPAMGLRASRNCSRTENAVCGCSPGHFCIVQDGDHCAACRAYATSSPGQRVQKGGTESQDTLCQNCPPGTFSPNGTLEECQHQTKCSWLVTKA
modifications: left off: a dimerising Fc or GST
notes: extracellular domain of HveA (aa 1-192) fused to Fc of human IgG1

competition with DR3-Fc for binding to TNF-gamma-beta expressing cells (TNF-gamma-beta; 2:1 molar ratio of non-tagged TR6 and DR3-Fc): no binding of DR3-Fc was detected
B4: TR6: non-tagged TNFR-6 alpha (DcR3) decoy receptor protein (protein)
chain: VAETPTYPWRDAETGERLVCAQCPPGTFVQRPCRRDSPTTCGPCPPRHYTQFWNYLERCRYCNVLCGEREEEARACHATHNRACRCRTGFFAHAGFCLEHASCPPGAGVIAPGTPSQNTQCQPCPPGTFSASSSSSEQCQPHRNCTALGLALNVPGSSSHDTLCTSCTGFPLSTRVPGAEECERAVIDFVAFQDISIKRLQRLLQALEAPEGWGPTPRAGRAALQLKLRRRLTELLGAQDGALLVRLLQALRVARMPGLERSVRERFLPVH
